Reference: ChEMBL document CHEMBL5316268 (J Med Chem, 2023)
Calls of active or inactive are those of the source. The rule behind the calls is not given here.

Assays:
[1] = Clearance in CD rat at 1 mg/kg, iv measured for 24 hrs by LC-MS/MS analysis; type: ADME, organism-based; details: in vivo
[2] = biological target: T1, 5'-nucleotidase (Homo sapiens, UniProt P21589); assay: Inhibition of CD73 in human plasma incubated for 15 mins in presence of 15N5-AMP by LC/MS analysis; type: cell-free
[3] = biological target: T1, 5'-nucleotidase; assay: Inhibition of cell surface anchored CD73 (unknown origin) expressed in human SK-MEL-28 cells incubated for 30 mins by malachite green assay; type: cell-based
[4] = Oral bioavailability in CD rat at 50 mg/kg measured for 24 hrs by LC-MS/MS analysis; type: ADME, organism-based; details: CD, in vivo
[5] = biological target: T1, 5'-nucleotidase; assay: Inhibition of recombinant human CD73
[6] = Selectivity ratio of IC50 for CD73 in human plasma to IC50 for C-terminal 6His-tagged recombinant human CD73 (27 to 547 residues) expressed in CHO cells; type: cell-based
[7] = biological target: T1, 5'-nucleotidase; assay: Inhibition of soluble C-terminal 6His-tagged recombinant human CD73 (27 to 547 residues) expressed in CHO cells incubated for 1 hr by malachite green based spectrophotometer assay; type: cell-based
[8] = biological target: T2, 5'-nucleotidase (Mus musculus, UniProt Q61503); assay: Inhibition of C-terminal 6His-tagged recombinant mouse CD73 (29 to 549 residues) expressed in CHO cells incubated for 1 hr by malachite green assay; type: cell-based
T2 sequence (Q61503 whole entry): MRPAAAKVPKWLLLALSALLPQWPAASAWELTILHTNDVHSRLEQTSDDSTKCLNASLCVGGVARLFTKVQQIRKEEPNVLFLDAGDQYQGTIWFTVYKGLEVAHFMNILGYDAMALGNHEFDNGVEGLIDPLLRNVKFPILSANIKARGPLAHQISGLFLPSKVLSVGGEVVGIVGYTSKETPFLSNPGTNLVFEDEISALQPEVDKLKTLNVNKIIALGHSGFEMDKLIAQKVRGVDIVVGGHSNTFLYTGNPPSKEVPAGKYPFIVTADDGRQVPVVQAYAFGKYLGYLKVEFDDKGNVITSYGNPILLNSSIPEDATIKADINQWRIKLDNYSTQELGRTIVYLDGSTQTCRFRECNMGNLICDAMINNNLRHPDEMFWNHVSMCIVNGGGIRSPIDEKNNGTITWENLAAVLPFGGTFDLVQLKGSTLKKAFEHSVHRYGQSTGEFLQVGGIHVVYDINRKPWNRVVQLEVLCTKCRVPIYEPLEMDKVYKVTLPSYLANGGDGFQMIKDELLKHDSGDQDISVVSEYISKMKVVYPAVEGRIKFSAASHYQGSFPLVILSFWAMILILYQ

[9] = system: EG7; assay: Antitumor activity against mouse EG7 cells implanted in mouse; type: functional, cell-based

T1 sequence (P21589 whole entry): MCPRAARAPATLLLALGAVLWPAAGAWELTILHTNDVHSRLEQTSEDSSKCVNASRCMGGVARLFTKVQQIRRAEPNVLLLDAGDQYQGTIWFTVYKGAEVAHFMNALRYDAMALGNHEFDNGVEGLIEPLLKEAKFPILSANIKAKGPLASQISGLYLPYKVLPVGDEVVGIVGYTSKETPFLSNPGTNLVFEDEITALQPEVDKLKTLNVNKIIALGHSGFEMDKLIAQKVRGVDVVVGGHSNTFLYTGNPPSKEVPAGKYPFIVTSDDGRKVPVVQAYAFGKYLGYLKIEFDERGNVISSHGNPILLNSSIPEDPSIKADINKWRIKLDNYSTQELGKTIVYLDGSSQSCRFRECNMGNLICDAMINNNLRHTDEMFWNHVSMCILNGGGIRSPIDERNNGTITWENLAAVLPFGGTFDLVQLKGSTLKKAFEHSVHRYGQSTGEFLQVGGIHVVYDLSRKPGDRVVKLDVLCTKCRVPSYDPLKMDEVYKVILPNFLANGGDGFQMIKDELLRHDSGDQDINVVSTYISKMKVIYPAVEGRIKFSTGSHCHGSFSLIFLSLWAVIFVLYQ

clearance [1]	IC50 [2]	Compound	also measured
1.4 mL/min/kg	50 nM	C#C[C@@]1(O)[C@@H](COC(Cc2ccccc2)(C(=O)O)C(=O)O)O[C@@H](n2cnc3c(NC(C)C)nc(Cl)nc32)[C@@H]1O	
20.4 mL/min/kg		Nc1nc(Cl)nc2c1ncn2[C@@H]1O[C@H](COC(Cc2ccccc2)(C(=O)O)C(=O)O)[C@@H](O)[C@H]1O	IC50 [3]: 434 nM; bioavailability [4]: 1.8%; IC50 [5]: 100 nM
7.5 mL/min/kg	7.2 nM	C#C[C@@]1(O)[C@@H](COC(Cc2ccccc2)(C(=O)O)C(=O)O)O[C@@H](n2cnc3c(NCCO)nc(Cl)nc32)[C@@H]1O	
9.9 mL/min/kg	1.6 nM	CC#C[C@@]1(O)[C@@H](COC(Cc2ccccc2)(C(=O)O)C(=O)O)O[C@@H](n2cnc3c(N)nc(Cl)nc32)[C@@H]1O	
6.3 mL/min/kg	> 100 nM	C#C[C@@]1(O)[C@@H](COC(Cc2ccccc2)(C(=O)O)C(=O)O)O[C@@H](n2cnc3c(NCc4ccccc4)nc(Cl)nc32)[C@@H]1O	
	136 nM	C#C[C@@]1(O)[C@@H](COC(Cc2ccccc2)(C(=O)O)C(=O)O)O[C@@H](n2cnc3c(-c4cccs4)nc(Cl)nc32)[C@@H]1O	
18 mL/min/kg	16 nM	C#C[C@@]1(O)[C@@H](COC(Cc2ccccc2)(C(=O)O)C(=O)O)O[C@@H](n2cnc3c(N(C)C)nc(Cl)nc32)[C@@H]1O	
64 mL/min/kg	15.6 nM	C#C[C@@]1(O)[C@@H](COC(Cc2ccc(-c3ccccc3)cc2)(C(=O)O)C(=O)O)O[C@@H](n2cnc3c(N)nc(Cl)nc32)[C@@H]1O	Ratio IC50 [6]: 52
1 mL/min/kg	917 nM	C#C[C@@]1(O)[C@@H](COC(Cc2ccccc2)(C(=O)O)C(=O)O)O[C@@H](n2cnc3c(N[C@H](C)c4ccccc4)nc(Cl)nc32)[C@@H]1O	
10 mL/min/kg	15.5 nM	C#C[C@@]1(O)[C@@H](COC(Cc2ccccc2)(C(=O)O)C(=O)O)O[C@@H](n2cnc3c(NC)nc(Cl)nc32)[C@@H]1O	
	0.38 nM	C#C[C@@]1(O)[C@@H](COC(Cc2ccc(-c3ccc[nH]c3=O)cc2)(C(=O)O)C(=O)O)O[C@@H](n2cnc3c(N)nc(Cl)nc32)[C@@H]1O	Ratio IC50 [6]: 3.8
		C[C@@]1(O)[C@@H](COC(Cc2ccccc2)(C(=O)O)C(=O)O)O[C@@H](n2cnc3c(N)nc(Cl)nc32)[C@@H]1O	IC50 [3]: 169 nM
9.2 mL/min/kg	208 nM	C#C[C@@]1(O)[C@@H](COC(Cc2ccccc2)(C(=O)O)C(=O)O)O[C@@H](n2cnc3c(N[C@@H](C)c4ccccc4)nc(Cl)nc32)[C@@H]1O	
3.7 mL/min/kg	11.5 nM	C#C[C@@]1(O)[C@@H](COC(Cc2ccccc2)(C(=O)O)C(=O)O)O[C@@H](n2cnc3c(NCC4CC4)nc(Cl)nc32)[C@@H]1O	
		Nc1nc(Cl)nc2c1ncn2[C@@H]1O[C@H](COC(Cc2ccccc2)(C(=O)O)C(=O)O)[C@@H](O)[C@@H]1F	IC50 [5]: 159 nM
		CN(C(=O)c1ccccc1)c1ccc(CC(OC[C@H]2O[C@@H](n3cnc4c(N)nc(Cl)nc43)[C@@H](F)[C@@H]2O)(C(=O)O)C(=O)O)cc1	IC50 [5]: 9 nM
54 mL/min/kg	1.5 nM	Nc1nc(Cl)nc2c1ncn2[C@@H]1O[C@H](COC(Cc2ccccc2)(C(=O)O)C(=O)O)[C@](O)(C#CC2CC2)[C@H]1O	
		CC[C@@]1(O)[C@@H](COC(Cc2ccccc2)(C(=O)O)C(=O)O)O[C@@H](n2cnc3c(N)nc(Cl)nc32)[C@@H]1O	IC50 [7]: 200 nM
13 mL/min/kg		C#C[C@@]1(O)[C@@H](COC(Cc2ccccc2)(C(=O)O)C(=O)O)O[C@@H](n2cnc3c(N)nc(Cl)nc32)[C@@H]1O	IC50 [8]: 7.3 nM; Activity [9]: Active
5.9 mL/min/kg	41 nM	C#C[C@@]1(O)[C@@H](COC(Cc2ccccc2)(C(=O)O)C(=O)O)O[C@@H](n2cnc3c(N(C)C)cc(Cl)nc32)[C@@H]1O	IC50 [7]: 2.1 nM
		C#C[C@@]1(O)[C@@H](COC(Cc2ccc(N3CCCCC3=O)cc2)(C(=O)O)C(=O)O)O[C@@H](n2cnc3c(N)nc(Cl)nc32)[C@@H]1O	Ratio IC50 [6]: 1
2.9 mL/min/kg	2.8 nM	C#C[C@@]1(O)[C@@H](COC(Cc2ccc(-c3ccccc3C(=O)O)cc2)(C(=O)O)C(=O)O)O[C@@H](n2cnc3c(N)nc(Cl)nc32)[C@@H]1O	Ratio IC50 [6]: 14
		Nc1ncnc2c1ncn2[C@@H]1O[C@H](COP(=O)(O)CP(=O)(O)O)[C@@H](O)[C@H]1O [PHOSPHOMETHYLPHOSPHONIC ACID ADENOSYL ESTER]	IC50 [5]: 6090 nM
0.91 mL/min/kg	160 nM	C#C[C@@]1(O)[C@@H](COC(Cc2ccccc2)(C(=O)O)C(=O)O)O[C@@H](n2cnc3c(NC(C)C)cc(Cl)nc32)[C@@H]1O	IC50 [7]: 2 nM
7.8 mL/min/kg	6.5 nM	C#C[C@@]1(O)[C@@H](COC(Cc2ccccc2)(C(=O)O)C(=O)O)O[C@@H](n2cnc3c(NCC)nc(Cl)nc32)[C@@H]1O	
17 mL/min/kg	5.4 nM	C#C[C@@]1(O)[C@@H](COC(Cc2ccccc2)(C(=O)O)C(=O)O)O[C@@H](n2cnc3c(N4CC(O)C4)nc(Cl)nc32)[C@@H]1O	
